Source: patent US12329753B2, “Phosphodiesterase inhibitor treatment” (Cyrano Therapeutics, Inc., priority 2008, dated 2025)

Test system: asthmatic patients
Assay: sGaw after inhaled dry powder in asthmatic patients, single blind study (Examples 5, 6)
Assay type: in vivo, human
Conditions: dry powder 1 mg inhaled
Protocol: (§1) To test this theory, asthmatic patients are enrolled in a dose escalating single blind study. On arrival to the clinic, subjects are allowed to rest for 20 minutes before baseline measurements of FEV1 (six recordings) and sGaw (five recordings) are made. Subjects receive a dry powder dispenser loaded with a dose of 2 mg theophylline or a dry powder carrier. […] After each inhalation, measurements of sGaw are made at 1, 3, 5, 10, 15, 20, 25, and 30 minutes.
On completion of the last recording, subjects inhale a 200 μg dose of salbutamol from a metered inhaler and a further measurement of sGaw is made after 15 minutes. Subjects are also monitored for coughing and are questioned about the taste of the drug.
as §1, with “Asthmatic patients” for “To test this theory, asthmatic patients”, “of 1” for “of 2”, “mg IBMX formulated as a dry powder” for “mg theophylline”
On completion of the last recording, subjects inhale a 200 μg dose of salbutamol from a metered inhaler and a further measurement of sGaw mad after 15 minutes. Subjects are also be monitored for coughing and are questioned about the taste of the drug.

Compound: CC(C)Cn1c(=O)n(C)c(=O)c2[nH]cnc21 [IBMX, 3-isobutyl-1-methylxanthine]
- increase in sGaw versus 200 μg salbutamol: comparable with that produced by salbutamol
- time until sGaw baseline is reached: one and a half hours
- sGaw above baseline measurement (after 30 minutes): 20%
